Measured values published in patent US5824706A (priority 1995, dated 1998).
Where two headings read alike, the source gives them in different places.

Experiments:
in vitro [1] = conditions: human, hmv-2 cells
MLSV = assay: microbe, parasite or virus in culture; format: cell-based, Measles virus (MLSV) Edmonston strain; conditions: Measles morbillivirus
RSV-B (SM61-48) = assay: microbe, parasite or virus in culture; format: cell-based, RSV SM-61-48 (type-B); conditions: human respiratory syncytial virus; Table 3; fresh isolate; ^b data from one experiment
MPSV = assay: MTT antiviral assay, mumps virus in HMV-2 cells; format: cell-based, mumps virus (MPSV) ECXH-3 strain; conditions: Mumps orthorubulavirus, HMV-2, read-out: EC50 MPSV (EXCH-3)
PFluV-2 = assay: MTT antiviral assay, parainfluenzavirus type 2 in HMV-2 cells; format: cell-based, Greer strain; conditions: Table 3, average of 3 to 4 independent experiments, read-out: EC50 PFluV-2 (Greer)
in vitro [2] = conditions: human, hep-2 cells
PFluV-3 = assay: MTT antiviral assay, parainfluenzavirus type 3 in Vero cells; format: cell-based, C243 strain; conditions: Table 3, average of 3 to 4 independent experiments, read-out: EC50 PFluV-3 (C243)
in vitro [3] = conditions: monkey, vero cells, Cytotoxicity IC50 Vero, Table 3
FluV-B = assay: MTT antiviral assay, FluV-B in MDCK cells; format: cell-based, influenza virus B/Singapore/222/79; conditions: influenza B virus, read-out: EC50 FluV-B (Singapore)
in vitro [4] = conditions: dog, mdck
FluV-A = assay: microbe, parasite or virus in culture; format: cell-based, influenza virus A/Ishikawa/7/82 (H3N2)
HMV-2 cells = conditions: read-out: Cytotoxicity IC50 HMV-2, Table 3
RSV-A (FM-58-8) = assay: microbe, parasite or virus in culture; format: cell-based, RSV FM-58-8 (type-A); conditions: human respiratory syncytial virus; Table 3; fresh isolate; ^b data from one experiment
RSV = assay: microbe, parasite or virus in culture; format: cell-based, RSV Long strain (type-A); conditions: human respiratory syncytial virus
[5] = viable cell counting (parentheses)

NC(=O)c1ncn([C@@H]2O[C@H](CO)[C@@H](O)[C@H]2O)n1 [Ribavirin]
CC50 (in vitro [1]): > 100 µM
EC50 (MLSV; HMV-2, read-out: Antiviral activity, EC50 MLSV): 5.2 µM
EC50 (MLSV; HMV-2, read-out: EC50 MLSV (Edmonston)): 5.2 µM
EC50 (RSV-B (SM61-48)): 1.6 µM
EC50 (MPSV): 3.4 µM
EC50 (PFluV-2): 8.9 µM
CC50 (in vitro [2]; Cytotoxicity IC50 HEp-2, Table 3, MTT method): 52.7 µM
CC50 (in vitro [2]; Cytotoxicity IC50 HEp-2, Table 3, viable cell counting (parentheses)): > 200 µM
CC50 (in vitro [2]; Cytotoxicity, IC50 HEp-2, Table 2): > 50 µM
EC50 (PFluV-3): 17.2 µM
CC50 (in vitro [3]; MTT method): 100 µM
CC50 (in vitro [3]; [5]): > 200 µM
EC50 (FluV-B): 5.1 µM
CC50 (in vitro [4]; Cytotoxicity IC50 MDCK, Table 3, MTT method): > 200 µM
CC50 (in vitro [4]; Cytotoxicity IC50 MDCK, Table 3, viable cell counting (parentheses)): > 200 µM
CC50 (in vitro [4]; Cytotoxicity, IC50 MDCK, Table 2): > 100 µM
EC50 (FluV-A; Ishikawa, read-out: EC50 FluV-A (Ishikawa)): 3.7 µM
EC50 (FluV-A; MDCK, read-out: Antiviral activity, EC50 FluV-A): 8.7 µM
CC50 (HMV-2 cells; MTT method): > 100 µM
CC50 (HMV-2 cells; [5]): > 100 µM
EC50 (RSV-A (FM-58-8)): 3.5 µM
EC50 (RSV; Table 2, read-out: Antiviral activity, EC50 RSV): 4.7 µM
EC50 (RSV; Table 3, average of 3 to 4 independent experiments, read-out: EC50 RSV-A (Long)): 4.7 µM
